Results on 25 compounds are retold here after patent publication US8314112B2 (Novartis AG, priority 2008, dated 2012).

The target of the assay is T1, human ALK5 (kinase domain, ALK5 T204D) (Homo sapiens, UniProt P36897, T204D).
T1 construct: The kinase domain of human ALK5 (amino acids 200-503); made in house; host or cells: insect cells (baculovirus)
T1 sequence (P36897 200-503 T204D): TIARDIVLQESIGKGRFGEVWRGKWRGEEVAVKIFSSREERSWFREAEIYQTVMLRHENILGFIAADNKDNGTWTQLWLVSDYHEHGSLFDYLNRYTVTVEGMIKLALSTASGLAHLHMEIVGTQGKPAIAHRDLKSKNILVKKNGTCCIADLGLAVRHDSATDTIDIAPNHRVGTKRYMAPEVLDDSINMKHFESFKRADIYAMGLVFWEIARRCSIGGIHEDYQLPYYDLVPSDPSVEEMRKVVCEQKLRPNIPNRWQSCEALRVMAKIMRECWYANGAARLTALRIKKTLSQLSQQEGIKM
Briefly: ALK5 kinase assay ([33P] phosphate incorporation into casein). The class given is biochemical. To be noted: casein substrate, 1 μM unlabelled ATP. How it is done: The kinase activity of ALK5 is assessed by measuring radiolabelled phosphate [33P] incorporation in to the generic substrate, casein. The kinase domain of human ALK5 (amino acids 200-503) is fused to an N-terminal histidine tag. The kinase activity of ALK5 is rendered constitutive via point mutation at amino acid 204 (threonine to aspartate modification, ALK5 T204D) and the kinase construct is engineered to be expressed from a baculovirus expression construct in insect cells. The purified, recombinantly-expressed histidine-tagged ALK5 T204D protein is dissolved at 5.4 mg/ml in 50 mM Tris-HCl pH 8.0, 150 mM NaCl, 5 mM DTT. ALK5 T204D is dissolved to 2.5 μg/ml in assay buffer (Assay buffer: 20 mM Tris-HCl pH 7.4, 10 mM MgCl2, 2 mM MnCl2) on the day of use.
Test compounds and reference compounds are dissolved in assay buffer without DTT containing 5% (v/v) DMSO. Stock solutions of test and reference compounds are diluted in assay buffer with DTT (1.25 mM) containing 4.5% (v/v) DMSO. 10 μl of test or reference compound are added to the appropriate wells of 96 well U-bottomed plate. Total enzyme activity is determined by measuring ALK5 T204D activity in the absence of ALK5 kinase inhibitor reference compounds. Non-specific binding (NSB) is determined by measuring the activity of ALK5 T204D in the presence of ALK5 kinase inhibitor reference compounds. 10 μl of dephosphorylated casein stock solution (dephosphorylated casein is dissolved in ddH2O at 20 mg/ml) is added per well (200 μg/well final assay concentration). 20 μl of ALK5 T204D (2.5 μg/ml solution) is added per well (50 ng/well final assay concentration). The plates are left to incubate at room temperature for 10 minutes.
10 μl of ATP mix is added to the well to initiate the reaction (0.66 nM [^33P]ATP/1 μM unlabelled ATP/well final assay concentration). The ATP mix is prepared as follows, unlabelled ATP (3 mM) is dissolved in ddH2O and pH adjusted to 7.4. The stock concentration of [^33P]ATP is 10 μCi/μl. The appropriate volume of [^33P]ATP is added to unlabelled ATP solution such that the final assay concentration per well is 0.1 μCi. Following addition of the ATP mix, the plates are incubated at room temperature for 50 minutes. The kinase reaction is terminated by the addition of 50 μL Stop Buffer (20 mM Tris-HCl pH 7.4, 10 mM EDTA).
75 μl/well from the reaction plate is transferred to a Multiscreen-IP plate (MultiScreen-IP plates are prepared by added 50 μL of 70% (v/v) ethanol per well and incubated for 5 minutes at room temperature. The ethanol is removed by aspiration via a MultiScreen HTS Vaccum Manifold unit (Millipore, Cat no: MSVMHT500). The plates are washed twice by adding 200 μl/well ddH2O). The MultiScreen-IP plate is incubated at room temperature for 30 minutes to allowing binding of casein to the plate. The MultiScreen-IP plates are washed three times by adding 200 μl/well 100 mM phosphoric acid solution and the gasket is carefully removed from the back of the MultiScreen-IP plate and the plate dried in the oven for 30 minutes. The MultiScreen-IP plate is backsealed, 50 μL of Microscint™20 is added, then the plates are topsealed and radiolabelled casein detected and quantified on a TopCount™ plate-reader using the ^33P scintillation protocol.
Regarding `Cc1cccc(-c2nc(-c3cncc4ccccc34)c3cc[nH]c3n2)n1` [Example 29, 4-[2-(6-Methyl-pyridin-2-yl)-7H-pyrrolo[2,3-d]pyrimidin-4-yl]-isoquinoline], half-maximal inhibition (IC50) was put at 0.011 µM.

Take `Cc1cccc(-c2nc(-c3cncc(NC(=O)CCCN(C)C)c3)c3cc[nH]c3n2)n1` [Example 30, 4-Dimethylamino-N-{5-[2-(6-methyl-pyridin-2-yl)-7H-pyrrolo[2,3-d]pyrimidin-4-yl]-pyridin-3-yl}-butyramide]: the midpoint of inhibition, the IC50, lay at 0.064 µM. This IC50 lies about 5.8-fold higher than the previous one.

With `Cc1cccc(-c2nc(-c3cncc(NC(=O)CCN(C)C)c3)c3cc[nH]c3n2)n1` [Example 31, 3-Dimethylamino-N-{5-[2-(6-methyl-pyridin-2-yl)-7H-pyrrolo[2,3-d]pyrimidin-4-yl]-pyridin-3-yl}-propionamide], inhibition was half-maximal at 0.085 µM (IC50).

`Cc1cccc(-c2nc(-c3cncc(-c4ccccc4C)c3)c3cc[nH]c3n2)n1` [Example 32, 2-(6-Methyl-pyridin-2-yl)-4-(5-o-tolyl-pyridin-3-yl)-7H-pyrrolo[2,3-d]pyrimidine] came in with an IC50 of 0.762 µM.

In turn, `Cc1cccc(-c2nc(-c3cncc(-c4ccccc4Cl)c3)c3cc[nH]c3n2)n1` [Example 33, 4-[5-(2-Chloro-phenyl)-pyridin-3-yl]-2-(6-methyl-pyridin-2-yl)-7H-pyrrolo[2,3-d]pyrimidine] returned an IC50 of 0.09 µM.

Turning to `Cc1cccc(-c2nc(-c3cncc(-c4cccc(CN5CCN(C(C)C)CC5)c4)c3)c3cc[nH]c3n2)n1` [Example 34, 4-{5-[3-(4-Isopropyl-piperazin-1-ylmethyl)-phenyl]-pyridin-3-yl}-2-(6-methyl-pyridin-2-yl)-7H-pyrrolo[2,3-d]pyrimidine], the midpoint of inhibition, the IC50, lay at 0.051 µM.

On to `Cc1cccc(-c2nc(-c3cncc(-c4ccc(CN5CCN(C(C)C)CC5)cc4)c3)c3cc[nH]c3n2)n1` [Example 35, 4-{5-[4-(4-Isopropyl-piperazin-1-ylmethyl)-phenyl]-pyridin-3-yl}-2-(6-methyl-pyridin-2-yl)-7H-pyrrolo[2,3-d]pyrimidine], for which the IC50 stood at 0.044 µM.

For `CNCc1cccc(-c2cncc(-c3nc(-c4cccc(C)n4)nc4[nH]ccc34)c2)c1` [Example 36, Methyl-(3-{5-[2-(6-methyl-pyridin-2-yl)-7H-pyrrolo[2,3-d]pyrimidin-4-yl]-pyridin-3-yl}-benzyl)-amine], it took 0.008 µM to reach half-maximal inhibition (IC50).

Consider `Cc1cccc(-c2nc(-c3cncc(-c4cccc(CN(C)C)c4)c3)c3cc[nH]c3n2)n1` [Example 37, Dimethyl-(3-{5-[2-(6-methyl-pyridin-2-yl)-7H-pyrrolo[2,3-d]pyrimidin-4-yl]-pyridin-3-yl}-benzyl)-amine], for which the IC50 turned out to be 0.033 µM.

For `Cc1cccc(-c2nc(-c3cncc(-c4ccc(CN(C)C)cc4)c3)c3cc[nH]c3n2)n1` [Example 38, Dimethyl-(4-{5-[2-(6-methyl-pyridin-2-yl)-7H-pyrrolo[2,3-d]pyrimidin-4-yl]-pyridin-3-yl}-benzyl)-amine], the IC50 came to 0.012 µM. This IC50 lies about 2.8-fold lower than the previous one.

`CNCc1ccc(-c2cncc(-c3nc(-c4cccc(C)n4)nc4[nH]ccc34)c2)cc1` [Example 39, Methyl-(4-{5-[2-(6-methyl-pyridin-2-yl)-7H-pyrrolo[2,3-d]pyrimidin-4-yl]-pyridin-3-yl}-benzyl)-amine] registered an IC50 of 0.006 µM.

`Cc1cccc(-c2nc(-c3cncc(-c4ccc(C(=O)N5CCNCC5)cc4)c3)c3cc[nH]c3n2)n1` [Example 40, (4-{5-[2-(6-Methyl-pyridin-2-yl)-7H-pyrrolo[2,3-d]pyrimidin-4-yl]-pyridin-3-yl}-phenyl)-piperazin-1-yl-methanone] came in with an IC50 of 0.003 µM.

Regarding `Cc1cccc(-c2nc(-c3cncc(N4CCN(C)CC4)c3)c3cc[nH]c3n2)n1` [Example 41, 4-[5-(4-Methyl-piperazin-1-yl)-pyridin-3-yl]-2-(6-methyl-pyridin-2-yl)-7H-pyrrolo[2,3-d]pyrimidine], the IC50 turned out to be 0.13 µM.

`CN1CCN(C(=O)c2ccc(-c3cncc(-c4nc(-c5ccccn5)nc5[nH]ccc45)c3)cc2)CC1` [Example 42, (4-Methyl-piperazin-1-yl)-{4-[5-(2-pyridin-2-yl-7H-pyrrolo[2,3-d]pyrimidin-4-yl)-pyridin-3-yl]-phenyl}-methanone] gave an IC50 of 0.017 µM.

With `CN1CCN(Cc2ccc(-c3cncc(-c4nc(-c5ccccn5)nc5[nH]ccc45)c3)cc2)CC1` [Example 43, 4-{5-[4-(4-Methyl-piperazin-1-ylmethyl)-phenyl]-pyridin-3-yl}-2-pyridin-2-yl-7H-pyrrolo[2,3-d]pyrimidine], the IC50 came out at 0.006 µM.

`Brc1cncc(-c2nc(-c3ccccn3)nc3[nH]ccc23)c1` [Example 44, 4-(5-Bromo-pyridin-3-yl)-2-pyridin-2-yl-7H-pyrrolo[2,3-d]pyrimidine] had an IC50 of 0.424 µM. This IC50 is about 71-fold higher than that of the compound before.

In turn, `CN1CCN(Cc2cccc(-c3cncc(-c4nc(-c5ccccn5)nc5[nH]ccc45)c3)c2)CC1` [Example 45, 4-{5-[3-(4-Methyl-piperazin-1-ylmethyl)-phenyl]-pyridin-3-yl}-2-pyridin-2-yl-7H-pyrrolo[2,3-d]pyrimidine] had an IC50 of 0.019 µM.

For `Cc1cccc(-c2cc(-c3cccnc3)c3cc[nH]c3n2)n1` [Example 46, 6-(6-methyl-pyridin-2-yl)-4-pyridin-3-yl-1H-pyrrolo[2,3-b]pyridine], the midpoint of inhibition, the IC50, lay at 0.264 µM.

In turn, `COc1cncc(-c2cc(-c3cccc(C)n3)nc3[nH]ccc23)c1` [Example 47, 4-(5-Methoxy-pyridin-3-yl)-6-(6-methyl-pyridin-2-yl)-1H-pyrrolo[2,3-b]pyridine] gave an IC50 of 0.028 µM.

`Cc1cccc(-c2nc(-c3cncc(N4CCCCC4)c3)c3cc[nH]c3n2)n1` [Example 48, 5′-[2-(6-Methyl-pyridin-2-yl)-7H-pyrrolo[2,3-d]pyrimidin-4-yl]-3,4,5,6-tetrahydro-2H-[1,3′]bipyridinyl] yielded an IC50 of 1.34 µM. Compared with the last compound, the IC50 is about 48-fold higher.

Compound `Cc1cccc(-c2nc(-c3cncc(N4CCC(O)CC4)c3)c3cc[nH]c3n2)n1` [Example 49, 5′-[2-(6-Methyl-pyridin-2-yl)-7H-pyrrolo[2,3-d]pyrimidin-4-yl]-3,4,5,6-tetrahydro-2H-[1,3′]bipyridinyl-4-ol] registered an IC50 of 1.08 µM.

Regarding `Cc1cccc(-c2nc(-c3cncc(NC(=O)CCN)c3)c3cc[nH]c3n2)n1` [Example 50, 3-amino-N-{5-[2-(6-methyl-pyridin-2-yl)-7H-pyrrolo[2,3-d]pyrimidin-4-yl]-pyridin-3-yl}-propionamide], half-maximal inhibition (IC50) was put at 0.149 µM. Compared with the last compound, the IC50 is about 7.2-fold lower.

With `Cc1cccc(-c2nc(-c3cncc(N4CCOCC4)c3)c3cc[nH]c3n2)n1` [Example 51, 2-(6-Methyl-pyridin-2-yl)-4-(5-morpholin-4-yl-pyridin-3-yl)-7H-pyrrolo[2,3-d]pyrimidine], the IC50 amounted to 0.66 µM.

`CC(=O)NCCCC(=O)Nc1cncc(-c2nc(-c3cccc(C)n3)nc3[nH]ccc23)c1` [Example 52, 4-Acetylamino-N-{5-[2-(6-methyl-pyridin-2-yl)-7H-pyrrolo[2,3-d]pyrimidin-4-yl]-pyridin-3-yl}-butyramide] returned an IC50 of 0.435 µM.

Regarding `CC(=O)NCCC(=O)Nc1cncc(-c2nc(-c3cccc(C)n3)nc3[nH]ccc23)c1` [Example 53, 3-Acetylamino-N-{5-[2-(6-methyl-pyridin-2-yl)-7H-pyrrolo[2,3-d]pyrimidin-4-yl]-pyridin-3-yl}-propionamide], the IC50 was 0.57 µM. The IC50 values of the last two compounds are within 1.5-fold of each other.
